Laboratory results as given in publication PMC4372538, “Advantages of the Phosphatidylserine-Recognizing Peptide PSP1 for Molecular Imaging of Tumor Apoptosis Compared with Annexin V” (PLoS ONE, 2015).
Entries after “also recorded” stand apart in the source; their conditions may differ. Where no end group is shown, it is not given here.

Legend:
[1] = tested on: apoptotic tumor cells in H460 tumor-bearing mice; assay: in vivo fluorescence imaging of tumors after apoptosis induction; parameters: species or system BALB/c nude mice; human H460 tumor; conditions: for in vivo tumor homing: i.v., camptothecin-treated H460 tumor-bearing mice, n = 5, imaging 10 min to 12 h, PSP1 10 μg/200 μl, annexin V and control peptide 100 μg/200 μl
Procedure: (§1) Female nude mice (BALB/c nude; body weight, 20±3 g; n = 5) were housed in a specific pathogen-free environment at 22±2°C and 55±5% relative humidity with light. Tumors were generated by subcutaneously injecting H460 cells (5×10^6 cells) into the right shoulder of 6-wk-old female BALB/c nude mice and allowing them to grow for 3 weeks (size of 0.5 to 0.7 cm). For in vivo analysis of tumor targeting, the tumor-bearing mice were either treated or not treated with a single dose of camptothecin (10 mg/kg) 24 hrs prior to intravenous injection of Cy7.5-labeled PSP1, Cy7.5-annexin V or Cy7.5-labeled control peptide into the tail vein under inhalational anesthesia (1% (w/v) isoflurane in 2 L oxygen).
In vivo fluorescence images were taken at different time intervals after peptide injection (10 min, 1 h, 3 h, 6 h, and 12 h) using an eXplore Optix system (ART Advanced Research Technologies Inc., Montreal, Canada), which has excitation/emission wavelengths of 778 nm/805 nm. The obtained images were processed using eXplore Optix OptiView Software and normalized based on the baseline fluorescence, assessed for each mouse prior to peptide injection.
Fig 4 In vivo imaging of tumors after apoptosis induction. (A) Cy7.5-labelled PSP1peptide, control peptide, or annexin V was systematically injected into the tail vein of tumor-bearing nude mice treated with camptothecin 24 hrs before injection. The same amount of annexin V was also injected into non-camptothecin-treated tumor-bearing mice as a control. The homing of the peptides was examined after the indicated times using an optical imaging system. The white dotted circles indicate the tumors. (B) Histological examination of tumor tissues after homing of PSP1 and annexin V, performed under a fluorescence microscope. Tumor cell apoptosis was observed by TUNEL staining.

[2] = tested on: apoptotic cells in tumor tissue; assay: histological examination of tumor tissues after in vivo homing; parameters: species or system BALB/c nude mice; human H460 tumor; conditions: Cy7.5-labeled, i.v., tumors removed at 6 hr, camptothecin-treated mice
Procedure: At the 6 hr time point, the animals were euthanized with CO2, and tumor tissues were removed from a subset of animals. The tumor tissues were then fixed by incubating with 4% paraformaldehyde (PFA) overnight, followed by freezing for cryosectioning and immunohistochemical studies under a fluorescence microscope (Zeiss, Oberkochen, Germany). Apoptosis in the tumor tissues was assessed by […] terminal deoxynucleotidyl transferase-mediated dUTP nick-end labelling (TUNEL) staining in accordance with the manufacturer’s instructions (Chemicon Int., Temecula, CA, USA).  Fig 4 In vivo imaging of tumors after apoptosis induction. (A) Cy7.5-labelled PSP1peptide, control peptide, or annexin V was systematically injected into the tail vein of tumor-bearing nude mice treated with camptothecin 24 hrs before injection. The same amount of annexin V was also injected into non-camptothecin-treated tumor-bearing mice as a control. The homing of the peptides was examined after the indicated times using an optical imaging system. The white dotted circles indicate the tumors. (B) Histological examination of tumor tissues after homing of PSP1 and annexin V, performed under a fluorescence microscope. Tumor cell apoptosis was observed by TUNEL staining.

apoptotic H460 cells [3] = assay: FACS binding to apoptotic H460 cells; type: cell-based, human; conditions: FITC-labeled; for binding of PSP1 mutants to apoptotic H460 cells (FACS): 10 μg/ml, vs PSP1, 4°C, n = 3
Procedure: (§2) The human lung cancer cell H460, which was obtained from the American Type Culture Collection (ATCC), was maintained in RPMI-1640 media supplemented with 10% heat-inactivated fetal bovine serum (FBS) and penicillin G/streptomycin at 37°C in a humidified atmosphere of 95% air and 5% CO2.
(§3) To induce apoptosis of lung tumor cells (H460), the cells (5×10^6 cell) were grown overnight and then treated with etoposide (50 μM) (Sigma) in serum-free media for 22 hrs, followed by washing with phosphate-buffered saline (PBS) and binding buffer (10 mM Hepes (pH 7.4), 150 mM NaCl, and 2 mM CaCl2).
(§4) Control peptide (grey); FITC-NSSSVDK.

H460 cells = assay: apoptosis induction in H460 cells, annexin V/PI staining; conditions: etoposide 50 μM
H460 tumors = assay: TUNEL staining of tumors; type: in vivo, BALB/c nude mice; human H460 tumor; conditions: camptothecin 10 mg/kg single dose
Procedure: as §1
At the 6 hr time point, the animals were euthanized with CO2, and tumor tissues were removed from a subset of animals. The tumor tissues were then fixed by incubating with 4% paraformaldehyde (PFA) overnight, followed by freezing for cryosectioning and immunohistochemical studies under a fluorescence microscope (Zeiss, Oberkochen, Germany). Apoptosis in the tumor tissues was assessed by […] terminal deoxynucleotidyl transferase-mediated dUTP nick-end labelling (TUNEL) staining in accordance with the manufacturer’s instructions (Chemicon Int., Temecula, CA, USA).

normal H460 cells = assay: FACS binding to normal H460 cells; type: cell-based, human; conditions: FITC-labeled, 10 μg/ml; n = 3
Procedure: as §2, §3, §4

PS liposomes = assay: SPR binding to PS liposomes
From the text: To compare the kinetics of annexin V and PSP1 peptide binding to PS liposomes, SPR spectroscopy was employed (Reichert Inc, NY, USA). PC and PS liposomes (0.8:0.2 PC:PS) were generated as previously described and were homogenously purified using a liposome mini-extruder with a 100 nm membrane filter, based on the manufacturer’s protocol (Avanti Polar Lipids). […] Briefly, phytosphingosine was immobilized by activating the carboxymethyl groups on dextran-coated chips (Reichert Life Sciences) through a reaction with N-hydroxysuccinimide (Sigma-Aldrich), followed by covalent bonding of the ligands to the chip surface via amide linkages and blocking of excess activated carboxyls with ethanolamine. The purified PS or PC liposomes were captured on the phytosphingosine layer at a flow rate of 5 μl/min in liposome immobilization buffer (10 mM Tris-HCl (pH 8.0), 100 mM NaCl, and 2 mM CaCl2). To use the PC-immobilized surface as a control, the injected PS or PC liposome volume was adjusted to an immobilization level of approximately 4000±200 RU. Different concentrations of the PSP1 peptide (0.313 to 5 μM) and annexin V (3.13 to 100 nM) in running buffer (10 mM Tris-HCl (pH 8.0), 100 mM NaCl, 2 mM CaCl2, and 62.5 μg/ml BSA) were allowed to flow over the surfaces bound to the immobilized liposomes for 3 min at a rate of 30 μl/min. The sensor surface was regenerated after each association and dissociation cycle by injecting 10 mM EDTA for 20 s, followed by 50 mM NaOH for 10 s. The interaction of the ligand and the analyte was analyzed using Scrubber 2 Biologic software (http://www.biologic.com.au/). The binding kinetics was assessed by determining the association (kon), dissociation (koff), and equilibrium (KD) constants.
The in vitro binding affinity of PSP1 and annexin V for PS was further examined using SPR analysis (Fig. 2). […] We immobilized PS liposomes on the surface of an SPR chip, applied a series of different concentrations of PSP1 or annexin V, and examined the binding kinetics. PS-specific binding was determined by subtracting binding responses to a PC liposome-coated surface from those obtained using a PS liposome-coated […] surface.
Fig 2 In vitro SPR analysis of PSP1 and annexin V binding to PS liposomes. (A) The indicated concentrations of PSP1 were injected onto the liposome-immobilized surface. Responses (RU) from the PC liposome-coated surface (reference) were subtracted from those from the PS:PC (2:8) liposome surface to monitor PS-specific binding. The equilibration binding constant (KD) and the association (Kon) and dissociation (Koff) rate constants were estimated using the Scrubber program. (B) Plots of the RU values of annexin V at the indicated concentrations.

[4] = phage display; ref [17]; cited from earlier work
apoptotic H460 cells [5] = assay: confocal microscopy of binding to apoptotic H460 cells; type: cell-based, human; conditions: FITC-labeled, 20 μg/ml, apoptotic H460 (etoposide 50 μM), 4°C, 1 hr
untreated cancer cells = assay: binding to normal (untreated) cancer cells, microscopy; type: cell-based, human; conditions: 40 μg/ml; data not shown
Procedure: (A) Apoptotic H460 cells in a chamber slide were incubated with 20 μg of PSP1, control peptide, or annexin V for 30 min. The cells were washed and fixed with 4% PFA before staining with DAPI. The confocal images were taken by laser confocal microscopy. (B) Normal H460 cells were subjected to incubation with the same amount of peptide or annexin V.

[6] = PS:PC (2:8) liposomes, PC response subtracted, Tris-HCl pH 8.0, 2 mM CaCl2, Scrubber, value from picture

NSSSVDK (also: FITC label, position not given here) [control peptide, control peptide (NSSSVDK), reference compound]
non-specific fluorescence in surrounding non-tumor tissues ([1]; Cy7.5-labeled control peptide 100 μg/200 μl i.v., camptothecin-treated tumor-bearing mice): surrounding non-tumor tissues absorbed fluorescence at the early time points, this non-specific signal vanished over time | in vivo tumor homing ([1]; Cy7.5-labeled): did not show specific tumor-homing signals | tumor-homing fluorescence signal in tumor cryosections [2]: No signals were observed in tumor tissues

CLSAAPSYC [AA-PSP1, mutant PSP1 peptide with alanine instead of tyrosine, …]
binding of PSP1 mutants to apoptotic H460 cells (FACS) (apoptotic H460 cells [3]): significantly diminished by replacement of tyrosine by alanine

COc1cc([C@@H]2c3cc4c(cc3[C@@H](O[C@@H]3O[C@@H]5CO[C@@H](C)O[C@H]5[C@H](O)[C@H]3O)[C@H]3COC(=O)[C@H]23)OCO4)cc(OC)c1O [etoposide]
effect of etoposide on H460 cells in words (H460 cells): without evidence of significant necrosis; also recorded: caused PS exposure; also recorded: did not significantly change the cell shape or number | H460 cells undergoing apoptosis (H460 cells; 22 hrs, serum-free media, annexin V/PI FACS): more than 50%

CC[C@@]1(O)C(=O)OCc2c1cc1n(c2=O)Cc2cc3ccccc3nc2-1 [camptothecin]
in vivo apoptosis in tumors (TUNEL) (H460 tumors): increased area of in vivo apoptosis

CLSFFPSYC [FF-PSP1, mutant PSP1 peptide with phenylalanine instead of tyrosine, …]
binding of PSP1 mutants to apoptotic H460 cells (FACS) (apoptotic H460 cells [3]): bound to the apoptotic cells as much as PSP1 | binding to normal H460 cells (FACS) (normal H460 cells): nonspecific binding to the normal cells

CLSYYPSYC [PSP1, peptide-based phosphatidylserine (PS) indicator PSP1 (…)]
Kd (PS liposomes; PS liposomes, PC liposome response subtracted, Tris-HCl pH 8.0, 2 mM CaCl2, read-out: in vitro binding affinity (equilibrium binding constant, KD)): 10.7 µM | PS binding kinetics in words (PS liposomes; PS liposomes, real-time association and dissociation): binds much more slowly to PS but, once bound, forms a more stable complex (slow dissociation) compared with annexin V; also recorded: dissociation of PSP1 was slow, even slower than that of annexin V | association rate constant (Kon) (PS liposomes; [6]): 5.05±3.00×10^1 M^-1S^-1 | dissociation rate constant (Koff) (PS liposomes; [6]): 2.87±0.95×10^-4 S^-1 | interaction with PS on apoptotic cells [4]: specific interaction with PS on apoptotic cells | binding to apoptotic H460 cells (FACS) (apoptotic H460 cells [3]; etoposide 50 μM 22 hrs, 2, 10, 20, 50 μg/ml, binding buffer 10 mM Hepes pH 7.4, 150 mM NaCl ± 2 mM CaCl2, 4°C, 1 hr): specifically bound to apoptotic H460 cells in a concentration-dependent manner; also recorded: specifically binds to apoptotic cells through PS exposed on the apoptotic cell surface | apoptotic cell-specific signal (confocal microscopy) (apoptotic H460 cells [5]): apoptotic cell-specific signals were clearly detected; also recorded: targets apoptotic tumor cells more efficiently than annexin V does | binding to untreated cancer cells (untreated cancer cells): a small degree of binding to untreated cancer cells | duration of in vivo fluorescence signal in tumor region ([1]; Cy7.5-labeled, i.v. tail vein, camptothecin 10 mg/kg 24 hrs before, PSP1 10 μg/200 μl (23.16 μM), annexin V 100 μg/200 μl (14.3 μM)): more than 12 hrs | in vivo tumor homing ([1]; Cy7.5-labeled): generated apoptosis/tumor-specific signals after cancer treatment in the animal model; also recorded: appeared higher than those of annexin V for the entire measurement period; also recorded: rapidly observed in the tumor region; also recorded: specifically homed to apoptotic cells in tumors after cancer therapy; also recorded: specifically targeted apoptotic cells in tumors following systemic administration | tumor-homing fluorescence signal in tumor cryosections [2]: significantly more prominent than that of annexin V
